In this experiment the test system is obese, diabetic hIAPPtg mice. The experiment in a line: Diet switch in hIAPPtg mice: HFD 9 w then test material-HFD (2 mg/g) 7 w. The experiment is classed as in vivo. As for the experimental part: 10-11 weeks old male hIAPPtg; CBA mice and wild type littermates were fed HFD for 9 weeks. After 9 weeks mice were either sacrificed or randomised into two groups either continuing on HFD or switched to test material-HFD (2 mg/g) for an additional 7 weeks.
Food intake was measured weekly by giving each cage 200 g pellet. After one week, the amount of pellets consumed were calculated and adjusted according to the number of animals/cage. Body weight was measured weekly. Body composition was assessed using EchoMRI.
Islets amyloid was quantification was done on pancreatic tissues isolated from hIAPPtg mice on HFD for 16 weeks (n=7 mice/n=69 islets) and hIAPPtg mice on HFD for 9 weeks then switched to test material-HFD (2 mg/g) for 7 weeks (n=5 mice/n=48 islets). Isolated pancreases was direct frozen, sectioned, and amyloid content quantified by staining with Thioflavin-S as previously described (Reference 2). For ex vivo analyses, islets were isolated by collagenase digestion of the pancreas (Reference 1) and cultured in RPMI medium 1640 (GIBCO #11879-0) supplemented with 11.1 or 22.2 mM glucose (GIBCO #A24940-01), 1% fetal bovine serum (GIBCO #10500), 50 U; μg/ml Pen/Strep (Gibco #15140-122), 10 mM Hepes (Umeå University, Laboratory medicine), 1 mM sodium pyruvate (GIBCO #11360-039) and 0.1% 2-Mercaptoethanol (Sigma #M3148). 0, 2.5, 5.0, and 10 μM test material were added from day 0 of culture. For assessing the effect of autophagy inhibition, 3-Methyladenine (3-MA, Aldrich #M9281), 5 μM, was added from day 0 of culture in combination with test material, 5 μM. The control contained DMSO 1:2000. Medium and compounds were changed every second day. After 92 hours of treatment islets were embedded, sectioned and amyloid content quantified by staining with Thioflavin-S as previously described (Reference 2). A minimum of 3 independent experiments was evaluated.

On to `O=C(Nc1nc(=O)n(Cc2ccc(Cl)cc2)s1)c1ccc(Cl)cc1` [test material, 4-chloro-N-[2-[(4-chlorophenyl)methyl]-3-oxo-1,2,4-thiadiazol-5-yl]benzamide], for which, under “2 mg/g”, the body fat result was “induced body weight and body fat loss”; the body weight entry was “induced body weight and body fat loss”. The “amount of islet amyloid formed” value (2 mg/g for 7 w, vs continued HFD) is reported as “significantly reduced”. In addition, where the note is “2 mg/g, 6 w after the switch”, the “established hyperglycemia (fasted blood glucose)” value is on record as “reverted”, the “established hyperinsulinemia (fasted insulin)” value is reported as “reverted” and the “established insulin resistance (HOMA-IR)” value is “reverted”.

The values above are taken from patent US20220023269A1, “Methods Of Treating Diabetes In Severe Insulin-Resistant Diabetic Subjects” (Balticgruppen Bio AB, priority 2018, published 2022).
